From publication PMC4754833, “Rilpivirine analogs potently inhibit drug-resistant HIV-1 mutants” (Retrovirology, 2016)

Assays:
HIV-1 RT mutant E138K = experiment: single round infection assay, E138K; assay type: cell-based; conditions: for IC50: ± SD, n=4
HIV-1 RT mutant K103N = test system: HIV-1 RT mutant K103N; parameters: method as in PMID 23217210; conditions: previous study; cited from earlier work
[1] = test system: HIV-1 RT mutant K101E/M184I; experiment: single round infection assay, K101E/M184I; assay type: cell-based; conditions: K101E/M184I vs WT
Method: (§1) The human osteosarcoma cell line, HOS, was obtained from Dr. Richard Schwartz (Michigan State University, East Lansing, MI) and grown in Dulbecco’s modified Eagle’s medium (Invitrogen, Carlsbad, CA) supplemented with 5 % (v/v) fetal bovine serum, 5 % newborn calf serum, and penicillin (50 units/ml) plus streptomycin (50 µg/ml; Quality Biological, Gaithersburg, MD). Virion production and single-round infectivity assays were used to determine antiviral activity (IC50 values) of the compounds as previously described.
(§2) pNLNgoMIVR-ΔEnv.LUC has been described previously. The RT open reading frame was removed from pNLNgoMIVR-ΔEnv.LUC (digestion with SpeI and SalI) and inserted between the SpeI and SalI sites of pBluescript II KS+. Using that construct as the wild-type template, we prepared the following HIV-1 RT mutants using the QuikChange II XL (Stratagene, La Jolla, CA) site-directed mutagenesis protocol kit: L100I, K103N, Y181C, Y188L, H221Y, K103N/Y181C, G190A, G190S, M230L, P236L, L100I/K103N, K103N/P225H, V106A/G190A/F227L, V106A, L234I, V106A/F227L, V106A/L234I, V106A/F227L/L234I, E40K, D67E, K101E, V111A, E138K, M184I, M184V, K101E/M184I, K101E/M184V, E138K/M184I, E138K/M184V, K101P, Y181I, and K101P/V179I. The following sense oligonucleotides were used with matching cognate antisense oligonucleotides (not shown) (Integrated DNA Technologies, Coralville, IA) in the mutagenesis: L100I, 5′-[…]-3′; L100I 2-103, 5′-[…]-3′; K103N, 5′-[…]-3′; Y181C, 5′-[…]-3′; Y188L, 5′-[…]-3′; H221Y, 5′-[…]-3′; G190A, 5′-[…]-3′; G190S, 5′-[…]-3′; P225H, 5′-[…]-3′; F227, 5′-[…]-3′; M230L, 5′-[…]-3′; P236L, 5′-[…]-3′; V106A, 5′-[…]-3′; L234I, 5′-[…]-3′; E40K, 5′-[…]-3′; D67E, 5′-[…]-3′; K101E, 5′-[…]-3′; V111A, 5′-[…]-3′; E138K, 5′-[…]-3′; M184I, 5′-[…]-3′; M184V, 5′-[…]-3′; K101P, 5′-[…]-3′; Y181I, 5′-[…]-3′; K101P/V179I, 5′-[…]-3′. The double mutants K103N/Y181C, K103N/P225H, and L100I/K103N were made using the previously generated K103N mutant and the appropriate oligonucleotides to add the second mutation, Y181C, P225, and L100I respectively. The double mutants V106A/F227L and V106A/L234I were prepared using the previously generated V106A mutant and the appropriate oligonucleotides to add the second mutation, F227L and L234I, respectively. The double mutants K101E/M184I and K101E/M184V were constructed using the previously generated K101E mutant and the appropriate oligonucleotides to add the second mutation, M184I and M184V, respectively. The double mutants E138K/M184I and E138K/M184V were constructed using the previously generated E138K mutant and the appropriate oligonucleotides for the second mutation, M184I and M184V, respectively. The triple mutant V106A/F227L/L234I was made using the previously generated V106A/F227L double mutant and the appropriate oligonucleotides for the third mutation, L234I. The triple mutant V106A/G190A/F227L was constructed in a series of steps using the previously generated V106A mutant and the appropriate oligonucleotides for the second mutation, G190A, to generate the double mutant V106A/G190A, and then the triple mutant was made using double mutant V106A/G190A and oligonucleotides for the third mutation, F227L. The DNA sequence of each construct was verified by DNA sequence determination. The sequences encoding the mutant RTs were then subcloned into pNLNgoMIVR-ΔEnv.LUC (between the KpnI and SalI sites) to produce the mutant HIV-1 constructs. These DNA sequences were also checked independently by DNA sequence determination.
(§3) 10.1186/s12977-016-0244-2 The IC50 values (nM) of RPV and the RPV analogs were determined against the NNRTI resistant mutants were measured by using a single round infection assay, n = 4. The concentrations (nM) are measured by reductions in luciferase reporter activity followed by the standard deviations. […]

[2] = test system: HIV-1 RT mutant L100I/K103N; experiment: single round infection assay, L100I/K103N; assay type: cell-based
Method: as §1, §2, §3

[3] = test system: HIV-1 RT mutant K103N/P225H; experiment: single round infection assay, K103N/P225H; assay type: cell-based
HIV-1 RT mutant G190A = experiment: single round infection assay, G190A; assay type: cell-based; conditions: Human immunodeficiency virus 1
HIV-1 RT mutant Y181I = experiment: single round infection assay, Y181I; assay type: cell-based; conditions: Human immunodeficiency virus 1
HIV-1 RT mutant L100I = test system: HIV-1 RT mutant L100I; parameters: method as in PMID 23217210; conditions: previous study; cited from earlier work
HIV-1 RT mutant G190S = experiment: single round infection assay, G190S; assay type: cell-based; conditions: Human immunodeficiency virus 1
[4] = test system: HIV-1 RT mutant K101P/V179I; experiment: single round infection assay, K101P/V179I; assay type: cell-based; conditions: Human immunodeficiency virus 1
WT HIV-1 = conditions: previous study; cited from earlier work
[5] = test system: HIV-1 RT mutant V106A/F227L; experiment: single round infection assay, V106A/F227L; assay type: cell-based; conditions: V106A/F227L vs WT
[6] = test system: HIV-1 RT mutant E138K/M184I; experiment: single round infection assay, E138K/M184I; assay type: cell-based; conditions: E138K/M184I vs WT
[7] = test system: HIV-1 RT mutant V106A/G190A/F227L; experiment: single round infection assay, V106A/G190A/F227L; assay type: cell-based

## Cc1cc(/C=C/C#N)cc(C)c1Nc1nc(Nc2ccc3scnc3c2)c2nc[nH]c2n1 [compound 21]
HIV-1 RT mutant E138K; E138K vs WT
  fold-change of IC50 of the mutant relative to WT: 6
HIV-1 RT mutant E138K; E138K
  IC50: 2.4 ± 0.4 nM
HIV-1 RT mutant E138K; Human immunodeficiency virus 1, E138K
  IC50: < 2.5 nM
HIV-1 RT mutant K103N
  IC50: < 7 nM
[1]
  fold-change of IC50 of the mutant relative to WT: 2
[2]; Human immunodeficiency virus 1, L100I/K103N, ± SD, n=4, limit of detection 100 nM
  IC50: 37.6 nM
[2]; L100I/K103N vs WT
  fold-change of IC50 of the mutant relative to WT: 92
[3]; Human immunodeficiency virus 1
  IC50: 1.4 ± 0.07 nM
[3]; K103N/P225H vs WT
  fold-change of IC50 of the mutant relative to WT: 3
HIV-1 RT mutant G190A
  IC50: 0.3 ± 0.12 nM
HIV-1 RT mutant Y181I
  IC50: > 100 nM
HIV-1 RT mutant L100I
  IC50: < 7 nM
HIV-1 RT mutant G190S
  IC50: 0.2 ± 0.04 nM
[4]
  IC50: > 100 nM
WT HIV-1
  IC50: < 7 nM
[5]
  fold-change of IC50 of the mutant relative to WT: 27
[6]
  fold-change of IC50 of the mutant relative to WT: 2
[7]; Human immunodeficiency virus 1
  IC50: 3.8 ± 1.6 nM
[7]; V106A/G190A/F227L vs WT
  fold-change of IC50 of the mutant relative to WT: 9
